Results from patent US4029811A, “Certain antiinflammatory dihydrobenzofuran and dihydronaphthofuran acetic acid compounds” (SCHIAPPARELLI - Stabilimenti Chimici Farmaceutici Riuniti …, priority 1974, dated 1977).
“Also recorded” adds a separate entry of the source. Where a name gives a salt, the structure may show the parent alone.

Experiments:
[1] = system: rat hind paw edema; assay: Carrageenin-induced edema assay; assay type: in vivo; conditions: po, 3 hours after carrageenin, tested compounds as sodium salts; for inhibition in vivo at 200 mg/kg: 200 mg/Kg/os; for inhibition in vivo at 10 mg/kg: 10 mg/Kg/os; for inhibition in vivo at 30 mg/kg: 30 mg/Kg/os; for inhibition in vivo at 90 mg/kg: 90 mg/Kg/os; for inhibition in vivo at 12.5 mg/kg: 12.5 mg/Kg/os; for inhibition in vivo at 25 mg/kg: 25 mg/Kg/os; for inhibition in vivo at 50 mg/kg: 50 mg/Kg/os; for inhibition in vivo at 100 mg/kg: 100 mg/Kg/os
Protocol: Paw edema was measured by fluid displacement when the paw was immersed in a cup of mercury.

[2] = system: experimental polyarthritis; assay: Experimental polyarthritis assay (modified Freund's adjuvant); assay type: in vivo, rat; conditions: for Activity in experimental polyarthritis assay: 14 days, paw volume, FIG. 1
Protocol: Three groups of 10 Wistar rats were used. […] Pharmacological treatment was carried out for 14 days, while the third group served as control. Paw edema was measured as for the carrageenin-induced edema. Results are reported in FIG. 1 as % increase of paw volume immediately before modified Freund's adjuvant injection.

[3] = system: abdominal stretching; assay: Anti-writhing assay (acetic acid); assay type: in vivo, mouse; conditions: 200 mg/Kg p.o., 20 minutes before 3% acetic acid i.p.; counted 20 minutes
Protocol: Male albino Swiss Mice, each weighing 20 to 22 g, were used. The animals were fasted for 18 hours before pharmacological treatment. […] The number of abdominal stretching was counted for 20 minutes following the acetic acid injection.

[4] = system: Wistar rats; assay: Long-term toxicity (60 days oral) in Wistar rats; assay type: in vivo; conditions: 60 mg/kg daily orally
Protocol: Compound (I) has been tested by employing 40 Wistar rats subdivided into 2 groups of 20 animals (10 male and 10 female). One of the groups (reference group) was fed in conventional manner, while 60 mg/kg daily of the compound on test were administered orally to the animals of the other group. The treatment was continued during 60 days: every 15 days the following aspects were checked: body weight, blood pressure (by incruent method), cardiac frequency, hemochromocytometric examination and urine analysis.
At the end of treatment, all animals have been sacrificed and subjected to further examinations (hemochromocytometric, serum-biochemical, enzymatic, electrolytic and autopsic examination).

[5] = system: Wistar rats; assay: Teratogenic studies in Wistar rats; assay type: in vivo; conditions: 30 mg/Kg and 60 mg/Kg orally
Protocol: Tests in the attempt of discovering any teratogenic and fetal-toxicity effects have been carried out in conventional manner on Wistar rats, to which compound (I) has been administered orally at dosages of 30 mg/Kg and 60 mg/Kg.

[6] = system: painful osteoarticular processes; assay: Clinical tests in patients with painful osteoarticular processes; assay type: in vivo, human
Protocol: 14 patients were treated with a dosage of 100 mg three times daily, during a period of three days; in further seven cases the treatment was 200--300 mg daily during 8-10 days. The remaining four patients received a dosage of 200 mg three times daily during periods of three to five days.

[7] = case 1, 100 mg three times daily
[8] = case 1, lumbosacral arthrosis, 100 mg three times daily

Which results are given for `O=C(O)Cc1ccc2c3c(ccc2c1)OCC3` [(III), 1,2-Dihydronaphtho [2,1-b] furan-7-acetic acid]?
inhibition in vivo at 200 mg/kg [1]: 51%; Activity relative to compound (I) ([2]; same conditions as for compound (I)): quite analogous to the activity of compound (I); % Stretching decrease from the control [3]: 73%

Which results are given for `CCC1Cc2cc(CC(=O)O)ccc2O1` (stereo not drawn) [Compound (I), 2,3-dihydro-2-ethylbenzofuran-5-yl-acetic acid]?
Food consumption ([4]; 60 days): The food consumption was regular; Lethal cases ([4]; 60 days): No lethal cases have been observed; Alterations induced by prolonged administration ([4]; 60 days, conclusion): does not induce biologically relevant alterations; Hemochromocytometric, serum-biochemical, enzymatic, electrolytic and autopsic examination ([4]; at end of 60 days treatment): No significant variations have been observed; Body weight increase, blood pressure, cardiac frequency, hemochromocytometric examination and urine analysis ([4]; checked every 15 days during 60 days, versus reference group): No differences have been noted; Pregnancy disturbances and/or toxic effects on fetus [5]: No. pregnancy disturbances and/or toxic effects on fetus have been observed; inhibition in vivo at 10 mg/kg [1]: 28%; inhibition in vivo at 30 mg/kg [1]: 46%; inhibition in vivo at 90 mg/kg [1]: 58%; inhibition in vivo at 200 mg/kg [1]: 68%; Activity in experimental polyarthritis assay ([2]; 200 mg/Kg p.o.): significant activity; Activity versus reference drug (phenylbutazone) ([2]; 200 mg/Kg p.o., at least in the first 9 days of treatment): superior to the reference drug; % Stretching decrease from the control [3]: 81%; Side effects ([6]; 25 patients, oral): no side effects having been observed; Tolerability ([6]; 25 patients, oral): always well tolerated; Antalgic-antiinflammatory effect ([6]; 25 patients, oral, overall): significant antalgic-antiinflammatory effect; Side effects [6, 7]: no side effects having been observed; Tolerability [6, 7]: exceedingly well tolerated; Clinical response, first day [6, 8]: fair symptomatologic relief; Clinical response, second day [6, 8]: improvement persists on the second day with an increased possibility for movement and gait; Clinical response, third day [6, 8]: the painful pattern has almost totally regressed; Side effects ([6]; case 2, 100 mg three times daily, eight days): No side effect; Clinical response ([6]; case 2, polyarthrosis, 100 mg three times daily, eight days): clear symptomatologic relief; gait is easier on the 4th and 5th day and mobility of the knee joint is improved; also recorded: Clearly positive clinical appreciation; Side effects ([6]; case 3, 100 mg three times daily, seven days): No side effect; Clinical response ([6]; case 3, cervical arthrosis, 100 mg three times daily, seven days): The patient reports relief; disappearance of cephalgia, possibility of rotating the cervical column initially blocked by pain; also recorded: almost total regression of algic aggravation; Side effects ([6]; case 4, 100 then 200 mg three times daily): no side effect; Clinical response ([6]; case 4, bilateral coxo-arthrosis, 100 mg three times daily days 1-2, 200 mg three times daily day 3): satisfactory response of the painful pattern with a progressive reduction in algic symptomatology; also recorded: Appreciably favourable clinical response; Side effects ([6]; case 5, 100 mg three times daily, five days): without any side effect; Clinical response ([6]; case 5, spinal arthrosis, 100 mg three times daily, five days): good antalgic effect; improved freedom of active and passive movements of the spinal column; Antalgic-antiinflammatory effect judged slight ([6]; five of 25 cases): 20%; Antalgic-antiinflammatory effect judged good or very good ([6]; seventeen of 25 cases): 68%; Antalgic-antiinflammatory effect judged none ([6]; three of 25 cases): 12%

With `CCC1CCc2cc(CC(=O)O)ccc2O1` (stereo not drawn) [(II), 2-ethylchroman-6-yl-acetic acid] as the compound, how does the inhibition in vivo at 200 mg/kg [1] read?
Its inhibition in vivo at 200 mg/kg is 31%.

What about the “% Stretching decrease from the control” value [3] of the same compound?
The value was 42%.

Which inhibition in vivo at 12.5 mg/kg [1] does the source give for `CCC1Cc2cc(C(C)C(=O)O)ccc2O1` (stereo not drawn) [(VI), 2(2-Ethyl-2,3-dihydrobenzofuran-5-yl)-propionic acid] here?
Its inhibition in vivo at 12.5 mg/kg is 19.3%.

What about the inhibition in vivo at 25 mg/kg [1] of the same compound?
The inhibition in vivo at 25 mg/kg was 41.6%.

What about the inhibition in vivo at 50 mg/kg [1] of the same compound?
The inhibition in vivo at 50 mg/kg was 43.9%.

And the inhibition in vivo at 100 mg/kg [1]?
The inhibition in vivo at 100 mg/kg was 59.1%.

With `CCCCC1C(=O)N(c2ccccc2)N(c2ccccc2)C1=O` [Phenylbutazone, reference compound] as the compound, how does the inhibition in vivo at 10 mg/kg [1] read?
The inhibition in vivo at 10 mg/kg was 8%.

And the inhibition in vivo at 30 mg/kg [1]?
The inhibition in vivo at 30 mg/kg was 17%.

What about the inhibition in vivo at 90 mg/kg [1] of the same compound?
The inhibition in vivo at 90 mg/kg was 20%.

And the inhibition in vivo at 200 mg/kg [1]?
The inhibition in vivo at 200 mg/kg was 42%.

And the “Activity in experimental polyarthritis assay” value ([2]; 200 mg/Kg p.o.)?
The value was “significant activity”.

And the “% Stretching decrease from the control” value [3]?
Its value is 43%.

For `CCC1CCc2cc(C(C)C(=O)O)ccc2O1` (stereo not drawn) [(VII), 2(2-Ethylchroman-6-yl)-propionic acid], which inhibition in vivo at 12.5 mg/kg [1] is on record?
The inhibition in vivo at 12.5 mg/kg was 28.7%.

And the inhibition in vivo at 25 mg/kg [1]?
The inhibition in vivo at 25 mg/kg was 50.2%.

What about the inhibition in vivo at 50 mg/kg [1] of the same compound?
Its inhibition in vivo at 50 mg/kg is 31.2%.

And the inhibition in vivo at 100 mg/kg [1]?
The inhibition in vivo at 100 mg/kg was 45.9%.

Which results are given for `O=C(O)Cc1ccc2c3c(ccc2c1)OCCC3` [(IV), 1H-2,3-Dihydronaphtho [2,1-b]pyran-8-yl-acetic acid]?
inhibition in vivo at 200 mg/kg [1]: 64%; % Stretching decrease from the control [3]: 62%

What does the source list for `CC(C)Cc1ccc(C(C)C(=O)O)cc1` (stereo not drawn) [Ibuprofen, 2-(4-isobutyl-phenyl)-propionic acid-sodium salt, reference compound]?
inhibition in vivo at 12.5 mg/kg [1]: 42.1%; inhibition in vivo at 25 mg/kg [1]: 38.1%; inhibition in vivo at 50 mg/kg [1]: 52.1%; inhibition in vivo at 100 mg/kg [1]: 46.9%
